target: CDK2 (human) (UniProt P24941); experiment: Enzyme Assay

Ki, < 1 µM:
O=c1[nH][nH]c2ccc(-c3nc(Nc4cc(-c5ccccc5)[nH]n4)c4ccccc4n3)c(C(F)(F)F)c12
N#Cc1c(-c2ncnc(Nc3n[nH]c4c3CCCC4)n2)ccc2[nH][nH]c(=O)c12
Cc1cc(Nc2nc(-c3ccc4[nH][nH]c(=O)c4c3Cl)nc(C)c2C)n[nH]1
O=c1[nH][nH]c2cc(NCCC(Nc3ccccn3)c3ccccc3)ccc12 (centres undefined)
Cc1cc(Nc2ccnc(Nc3ccc4c(=O)[nH][nH]c4c3)c2)n[nH]1
O=c1[nH][nH]c2cc(CCC3CCCC3Nc3ccccn3)ccc12 (centres undefined)
Cc1cnc(NC2CCC(Nc3ccc4c(=O)[nH][nH]c4c3)C2)s1 (centres undefined)
O=c1[nH][nH]c2ccc(-c3cc(Nc4n[nH]c5ccccc45)nnc3NCCN3CCCCC3)c(C(F)(F)F)c12
Cc1cnc(NC2CCC(Cc3ccc4c(=O)[nH][nH]c4c3)C2)s1 (centres undefined)
O=c1[nH][nH]c2cc(Nc3nc(Nc4cc(C5CC5)[nH]n4)ccc3[N+](=O)[O-])ccc12
COCCNc1cc(Nc2cc(C)[nH]n2)nc(SCc2ccc3[nH][nH]c(=O)c3c2)n1
O=c1[nH][nH]c2cc(Nc3nc(Nc4cc(C5CC5)[nH]n4)c4ccccc4n3)ccc12
Cc1cnc(NCCC(Cc2ccccc2)Oc2ccc3c(=O)[nH][nH]c3c2)s1 (centres undefined)
O=c1[nH][nH]c2ccc(-c3nc(Nc4cc(-c5cccs5)[nH]n4)c4ccccc4n3)c(C(F)(F)F)c12
Cn1cnc(NCCCOc2ccc3c(=O)[nH][nH]c3c2)c1
Cc1nc(-c2ccc3[nH][nH]c(=O)c3c2C(F)(F)F)nc(Nc2n[nH]c3ccccc23)c1C
O=c1[nH][nH]c2ccc(OCc3nc(Nc4cc(C5CC5)[nH]n4)c4ccccc4n3)cc12
O=c1[nH][nH]c2cc(C(F)(F)F)c(-c3nc(Nc4n[nH]c5c(F)cc(F)cc45)c4nccnc4n3)cc12
Cc1cc(Nc2cc(Oc3ccc4c(=O)[nH][nH]c4c3)nc3ccccc23)n[nH]1
COc1nc(Nc2ccc3c(=O)[nH][nH]c3c2)nc(Nc2cc(C3CC3)[nH]n2)n1
O=c1[nH][nH]c2cc(Nc3nc(Nc4cc(-c5ccccc5)[nH]n4)cc(-c4cccc([N+](=O)[O-])c4)n3)ccc12
Cc1cnc(NC(CCNc2ccc3c(=O)[nH][nH]c3c2)c2ccccc2)s1 (centres undefined)
Cc1cc(Nc2nc(-c3cc4c(=O)[nH][nH]c4cc3Cl)cc3ccccc23)n[nH]1
CC(=O)N1CCC(c2cc(Nc3n[nH]c4ccccc34)nc(-c3ccc4[nH][nH]c(=O)c4c3C(F)(F)F)n2)CC1
O=c1[nH][nH]c2ccc(CNc3nc(Nc4cc(C5CC5)[nH]n4)cc(-c4ccccc4)n3)cc12
O=c1[nH][nH]c2ccc(-c3nc(Nc4n[nH]c(-c5ccccc5)c4-c4ccccc4)c4ccccc4n3)c(C(F)(F)F)c12
O=c1[nH][nH]c2ccc(-c3nnc(C4CCNCC4)c(Nc4n[nH]c5ccccc45)n3)c(C(F)(F)F)c12
Cn1cnc(NC2CCCC(c3ccc4[nH][nH]c(=O)c4c3)C2)c1 (centres undefined)
Cc1cnc(NCCC(Cc2ccccc2)Nc2ccc3c(=O)[nH][nH]c3c2)s1 (centres undefined)
O=c1[nH][nH]c2cc(Nc3nc(Cl)nc(Nc4cc(C5CC5)[nH]n4)n3)ccc12
O=c1[nH][nH]c2ccc(-c3nc(Nc4n[nH]c5ccccc45)c4ccccc4n3)c([N+](=O)[O-])c12
O=c1[nH][nH]c2ccc(-c3nc(Nc4n[nH]c(C5CC5)n4)c4ccncc4n3)c(Cl)c12
O=c1[nH][nH]c2cc(C(F)(F)F)c(-c3cc(Nc4n[nH]c5ccccc45)cc(C4CCCCC4)n3)cc12
Cc1cnc(NC2CCCC(SCc3ccc4c(=O)[nH][nH]c4c3)C2)s1 (centres undefined)
CCCCc1cc(Nc2nc(-c3ccc4[nH][nH]c(=O)c4c3)nc(C3CC3)n2)n[nH]1
Cc1cnc(NOCCOc2ccc3c(=O)[nH][nH]c3c2)s1
COCc1cc(Nc2nc(Nc3ccc4c(=O)[nH][nH]c4c3)nc3ccccc23)n[nH]1
Cc1cc(Nc2cc(-c3ccccc3)nc(Oc3ccc4c(=O)[nH][nH]c4c3)n2)n[nH]1
Cc1cnc(NC2CCCC2CNc2ccc3c(=O)[nH][nH]c3c2)s1 (centres undefined)
O=c1[nH][nH]c2cc(SCCONc3nccnn3)ccc12
Cc1cc(Nc2nc(Cc3ccc4c(=O)[nH][nH]c4c3)nc3c2CCCC3)n[nH]1
CN1CCN(C(=O)c2cc(Nc3nc(-c4ccc5[nH][nH]c(=O)c5c4)nc4ccccc34)n[nH]2)CC1
Cc1cnc(NOCCNc2ccc3c(=O)[nH][nH]c3c2)s1
CC(C)(C)c1cc(Nc2nc(-c3ccc4[nH][nH]c(=O)c4c3C(F)(F)F)nc3ccccc23)n[nH]1
Cc1cc(Nc2cccc(NCc3ccc4c(=O)[nH][nH]c4c3)n2)n[nH]1
O=c1[nH][nH]c2cc(OC3CCC(Nc4cc(C5CC5)[nH]n4)C3)ccc12 (centres undefined)
O=c1[nH][nH]c2ccc(-c3nnc(C4CCCCC4)c(Nc4n[nH]c5ccc(F)cc45)n3)c(C(F)(F)F)c12
O=c1[nH][nH]c2cc(CCCCNc3ccccn3)ccc12
Nc1ccc(Nc2ccc3c(=O)[nH][nH]c3c2)nc1Nc1cc(C2CC2)[nH]n1
O=c1[nH][nH]c2cc(Nc3nc(Nc4n[nH]c5ccccc45)c4ccccc4n3)ccc12
Cn1cnc(NC2CCC(COCc3ccc4c(=O)[nH][nH]c4c3)C2)c1 (centres undefined)
Cc1cc(Nc2nc(-c3ccc4[nH][nH]c(=O)c4c3)nc3ccsc23)n[nH]1
O=c1[nH][nH]c2cc(OCCCNc3nccnn3)ccc12
O=c1[nH][nH]c2cc(C(F)(F)F)c(-c3cc(Nc4n[nH]c5ccccc45)cc(-c4ccccc4)n3)cc12
Cc1cnc(NCCC(Cc2ccccc2)Sc2ccc3c(=O)[nH][nH]c3c2)s1 (centres undefined)
CS(=O)(=O)N1CCCCC1c1cc(Nc2n[nH]c3ccccc23)nc(-c2ccc3[nH][nH]c(=O)c3c2C(F)(F)F)n1 (centres undefined)
Cc1cc(Nc2cc(C)[nH]n2)nc(Cc2ccc3c(=O)[nH][nH]c3c2)n1
O=c1[nH][nH]c2cc(Nc3cc(Nc4n[nH]c5ccccc45)c4ccccc4n3)ccc12
O=c1[nH][nH]c2cc(Sc3cc(Nc4cc(C5CC5)[nH]n4)ccn3)ccc12
O=c1[nH][nH]c2cc(Nc3ncc(-c4cccs4)c(Nc4cc(C5CC5)[nH]n4)n3)ccc12
Cn1cnc(NCCC(=O)Nc2ccc3c(=O)[nH][nH]c3c2)c1
O=c1[nH][nH]c2cc(Nc3nc(Nc4cc(C5CC5)[nH]n4)cc(-c4ccccc4Cl)n3)ccc12
CCc1cc(Nc2cc(C)[nH]n2)nc(COc2ccc3[nH][nH]c(=O)c3c2)n1
Cc1c(Nc2n[nH]c3ccccc23)nc(-c2cc3c(=O)[nH][nH]c3cc2Cl)nc1N1CCOCC1
O=c1[nH][nH]c2ccc(-c3nc(Nc4n[nH]c5cc(=O)n(-c6ccccc6)nc45)c4ccccc4n3)cc12
Cc1cc(Nc2nc(C3(c4ccc5c(=O)[nH][nH]c5c4)CC3)nc3ccccc23)n[nH]1
CC(=O)Nc1cccc(-c2cc(Nc3cc(C)[nH]n3)nc(Oc3ccc4c(=O)[nH][nH]c4c3)n2)c1
O=c1[nH][nH]c2ccc(C3CCCC(Nc4cc(C5CC5)[nH]n4)C3)cc12 (centres undefined)
O=c1[nH][nH]c2ccc(-c3cc(Nc4n[nH]c5cccnc45)c4ccccc4n3)cc12
Cc1cc(Nc2cc(-c3ccccc3C)nc(Oc3ccc4c(=O)[nH][nH]c4c3)n2)n[nH]1
O=C(CCNc1nccnn1)Oc1ccc2c(=O)[nH][nH]c2c1
O=C(CCSc1ccc2c(=O)[nH][nH]c2c1)Nc1nccnn1
O=c1[nH][nH]c2cc(C(F)(F)F)c(-c3cc4cccnc4c(Nc4n[nH]c5ccccc45)n3)cc12
Cc1cnc(NCCCOc2ccc3c(=O)[nH][nH]c3c2)s1
CCc1cccc2c(Nc3cc(C)[nH]n3)nc(-c3ccc4[nH][nH]c(=O)c4c3OC(F)(F)F)nc12
Cc1cc(Nc2nc(Nc3ccc4c(=O)[nH][nH]c4c3)nc3ccc(I)cc23)n[nH]1
O=C(CCOc1ccc2c(=O)[nH][nH]c2c1)Nc1cc(C2CC2)[nH]n1
Cc1cc(Nc2nc(Oc3ccc4c(=O)[nH][nH]c4c3)nc3ccccc23)n[nH]1
O=c1[nH][nH]c2cc(Sc3cc4ccccc4c(Nc4n[nH]c5ccccc45)n3)ccc12
Cc1cc(Nc2cc(-c3ccco3)[nH]n2)nc(COc2ccc3[nH][nH]c(=O)c3c2)n1
O=c1[nH][nH]c2cc(Nc3nc(Nc4cc(C5CC5)[nH]n4)nc(-c4ccccc4)n3)ccc12
Cc1cc(Nc2nc(-c3ccc4[nH][nH]c(=O)c4c3)nc3cc(-n4cccc4)ccc23)n[nH]1
Cc1cc(Nc2cc(C)[nH]n2)nc(COc2ccc3[nH][nH]c(=O)c3c2)n1
Cc1cc(Nc2cc(N3CCOCC3)nc(OCc3ccc4c(=O)[nH][nH]c4c3)n2)n[nH]1

From the Kinase Knowledgebase extract (Sharma et al. 2016)
